Source: US20140163050A1, “Use of 1H-quinazoline-2,4-diones” (priority 2011, published 2014)

test system: OF1 mice; experiment: maximal electroshock test (MES Test); type: in vivo, mouse; conditions: p.o., 1 h, @ 20 (mg/kg)
Procedure: Compounds of the invention were tested in OF1 mice using the maximal electroshock test (MES Test) described in detail by Schmutz et al., Naunyn-Schmiedeberg's Arch Pharmacol 1990, 342, 61-66. Briefly, generalized tonic-clonic convulsions of the hind extremities were induced by passing electrical current through temporal electrodes (50 Hz, 18 mA, 0.2 s). […] 30 mg/kg carbamazepine was used as a positive control; mice were classified as protected by a compound If the duration of the seizure lasted only 3 second or less. Five mice were used for each treatment condition and the percentage of protected mice was used as readout (i.e. a compound could give 0%, 20%, 40%, 60%, 80% or 100% protection). […]
ED50 values (ED: effective dose) were calculated using GraphPad Prism, v4.02.

SMILES | MES-Test (1 h, po) protection
Cn1nccc1-c1cc2c(=O)n(NS(C)(=O)=O)c(=O)[nH]c2cc1C(C)(F)F [Compound C-15, N-[7-(1,1-difluoro-ethyl)-6-(2-methyl-2H-pyrazol-3-yl)-2,4-dioxo-1,4-dihydro-2H-quinazolin-3-yl]-methanesulfonamide] | 80% @ 20

same assay, conditions: p.o., 1 h, @ 25 (mg/kg)

SMILES | MES-Test (1 h, po) protection
COCCn1nccc1-c1cc2c(=O)n(NS(C)(=O)=O)c(=O)[nH]c2cc1C(C)C [Compound C-1, N-{7-Isopropyl-6-[2-(2-methoxy-ethyl)-2H-pyrazol-3-yl]-2,4-dioxo-1,4-dihydro-2H-quinazolin-3-yl}-methanesulfonamide] | 40% @ 25

same assay, conditions: p.o., 1 h, @ 50 (mg/kg)

SMILES | MES-Test (1 h, po) protection
CC(C)c1cc2[nH]c(=O)n(NS(C)(=O)=O)c(=O)c2cc1-c1ccnn1C(C)C [Compound C-8, N-[7-Isopropyl-6-(2-isopropyl-2H-pyrazol-3-yl)-2,4-dioxo-1,4-dihydro-2H-quinazolin-3-yl]-methanesulfonamide] | 40% @ 50
CCc1cc2[nH]c(=O)n(NS(C)(=O)=O)c(=O)c2cc1-c1ccnn1C(C)C [Compound C-6, N-[7-Ethyl-6-(2-isopropyl-2H-pyrazol-3-yl)-2,4-dioxo-1,4-dihydro-2H-quinazolin-3-yl]-methanesulfonamide] | 20% @ 50

same assay, conditions: p.o., pre-treatment time 1 h

SMILES | MES-Test (1 h, po) ED50
CS(=O)(=O)Nn1c(=O)[nH]c2cc(C(F)(F)F)c(C3CCCO3)cc2c1=O [B-2 (R), N-[2,4-Dioxo-6-(tetrahydro-furan-2-yl)-7-trifluoromethyl-1,4-dihydro-2H-quinazolin-3-yl]-methanesulfonamide] | 12.8 mg/kg
CS(=O)(=O)Nn1c(=O)[nH]c2cc(C(F)(F)F)c(C3CCCO3)cc2c1=O [B-2 (S), N-[2,4-Dioxo-6-(tetrahydro-furan-2-yl)-7-trifluoromethyl-1,4-dihydro-2H-quinazolin-3-yl]-methanesulfonamide] | 33.2 mg/kg

test system: mouse; experiment: Oral bioavailability: in vivo orally active (audiogenic mouse test and/or MES test); conditions: not given
Procedure: The oral bioavailability was tested using the audiogenic mouse test (Audiogenic seizures, R. L. Collins; Chapter 14, pages: 347-372. In: Experimental Models of Epilepsy; By: Pupura, Penry, Tower, Woodbury, Walter, Raven Press, New York, 1972. Standard Book Number: 0-911216-26-X) and/or the MES test.

SMILES | In vivo orally active
CC(C)n1nccc1-c1cc2c(=O)n(NS(C)(=O)=O)c(=O)[nH]c2cc1C(F)F [Compound C-10, N-[7-Difluoromethyl-6-(2-isopropyl-2H-pyrazol-3-yl)-2,4-dioxo-1,4-dihydro-2H-quinazolin-3-yl]-methanesulfonamide] | Yes
Cn1nccc1-c1cc2c(=O)n(NS(C)(=O)=O)c(=O)[nH]c2cc1C(F)F [Compound C-9, N-[7-Difluoromethyl-6-(2-methyl-2H-pyrazol-3-yl)-2,4-dioxo-1,4-dihydro-2H-quinazolin-3-yl]-methanesulfonamide] | Yes
Cn1nccc1-c1cc2c(=O)n(NS(C)(=O)=O)c(=O)[nH]c2cc1C(C)(F)F [Compound C-15, N-[7-(1,1-difluoro-ethyl)-6-(2-methyl-2H-pyrazol-3-yl)-2,4-dioxo-1,4-dihydro-2H-quinazolin-3-yl]-methanesulfonamide] | Yes
Cn1nccc1-c1cc2c(=O)n(NS(C)(=O)=O)c(=O)[nH]c2cc1C(F)(F)F [Compound C-18, N-[6-(2-Methyl-2H-pyrazol-3-yl)-2,4-dioxo-7-trifluoromethyl-1,4-dihydro-2H-quinazolin-3-yl]-methanesulfonamide] | Yes
CC(O)c1cc2c(=O)n(NS(C)(=O)=O)c(=O)[nH]c2cc1C(F)(F)F (stereo not drawn) [Compound A-1, N-[6-(1-Hydroxy-ethyl)-2,4-dioxo-7-trifluoromethyl-1,4-dihydro-2H-quinazolin-3-yl]-methanesulfonamide] | Yes
CCOC(C)c1cc2c(=O)n(NS(C)(=O)=O)c(=O)[nH]c2cc1C(F)(F)F (stereo not drawn) [Compound A-5, N-[6-(1-Ethoxy-ethyl)-2,4-dioxo-7-trifluoromethyl-1,4-dihydro-2H-quinazolin-3-yl]methanesulfonamide] | yes
CCOC(CC)c1cc2c(=O)n(NS(C)(=O)=O)c(=O)[nH]c2cc1C(F)(F)F (stereo not drawn) [Compound A-13, N-[6-(1-Ethoxy-propyl)-2,4-dioxo-7-trifluoromethyl-1,4-dihydro-2H-quinazolin-3-yl]-methanesulfonamide] | Yes
CC(C)c1cc2[nH]c(=O)n(NS(C)(=O)=O)c(=O)c2cc1-c1ccnn1C(C)C [Compound C-8, N-[7-Isopropyl-6-(2-isopropyl-2H-pyrazol-3-yl)-2,4-dioxo-1,4-dihydro-2H-quinazolin-3-yl]-methanesulfonamide] | yes
CCC(O)c1cc2c(=O)n(NS(C)(=O)=O)c(=O)[nH]c2cc1C(F)(F)F (stereo not drawn) [Compound A-3, N-[6-(1-Hydroxy-propyl)-2,4-dioxo-7-trifluoromethyl-1,4-dihydro-2H-quinazolin-3-yl]-methanesulfonamide] | Yes
CCc1cc2[nH]c(=O)n(NS(C)(=O)=O)c(=O)c2cc1-c1ccnn1C(C)C [Compound C-6, N-[7-Ethyl-6-(2-isopropyl-2H-pyrazol-3-yl)-2,4-dioxo-1,4-dihydro-2H-quinazolin-3-yl]-methanesulfonamide] | yes
CC(C)n1nccc1-c1cc2c(=O)n(NS(C)(=O)=O)c(=O)[nH]c2cc1C(F)(F)F [Compound C-2, N-[6-(2-Isopropyl-2H-pyrazol-3-yl)-2,4-dioxo-7-trifluoromethyl-1,4-dihydro-2H-quinazolin-3-yl]-methanesulfonamide] | Yes
COC(C)c1cc2c(=O)n(NS(C)(=O)=O)c(=O)[nH]c2cc1C(F)(F)F (stereo not drawn) [Compound A-2, N-[6-(1-Methoxy-ethyl)-2,4-dioxo-7-trifluoromethyl-1,4-dihydro-2H-quinazolin-3-yl]-methanesulfonamide] | Yes
COCCn1nccc1-c1cc2c(=O)n(NS(C)(=O)=O)c(=O)[nH]c2cc1C(F)(F)F [Compound C-4, N-{6-[2-(2-Methoxy-ethyl)-2H-pyrazol-3-yl]-2,4-dioxo-7-trifluoromethyl-1,4-dihydro-2H-quinazolin-3-yl}-methanesulfonamide] | Yes
CCc1cc2[nH]c(=O)n(NS(C)(=O)=O)c(=O)c2cc1-c1ccnn1CC [Compound C-12, N-[7-Ethyl-6-(2-ethyl-2H-pyrazol-3-yl)-2,4-dioxo-1,4-dihydro-2H-quinazolin-3-yl]-methanesulfonamide] | Yes
CC(C)n1nccc1-c1cc2c(=O)n(NS(C)(=O)=O)c(=O)[nH]c2cc1CF [Compound C-3, N-[7-Fluoromethyl-6-(2-isopropyl-2H-pyrazol-3-yl)-2,4-dioxo-1,4-dihydro-2H-quinazolin-3-yl]-methanesulfonamide] | Yes
CCCC(O)c1cc2c(=O)n(NS(C)(=O)=O)c(=O)[nH]c2cc1C(F)(F)F (stereo not drawn) [Compound A-15, N-[6-(1-Hydroxy-butyl)-2,4-dioxo-7-trifluoromethyl-1,4-dihydro-2H-quinazolin-3-yl]-methanesulfonamide] | Yes
CCC(OC(C)C)c1cc2c(=O)n(NS(C)(=O)=O)c(=O)[nH]c2cc1C(F)(F)F (stereo not drawn) [Compound A-7, N-[6-(1-isopropoxy-propyl)-2,4-dioxo-7-trifluoromethyl-1,4-dihydro-2H-quinazolin-3-yl]-methanesulfonamide] | Yes
COCCn1nccc1-c1cc2c(=O)n(NS(C)(=O)=O)c(=O)[nH]c2cc1C(C)C [Compound C-1, N-{7-Isopropyl-6-[2-(2-methoxy-ethyl)-2H-pyrazol-3-yl]-2,4-dioxo-1,4-dihydro-2H-quinazolin-3-yl}-methanesulfonamide] | yes
CC(F)c1cc2[nH]c(=O)n(NS(C)(=O)=O)c(=O)c2cc1-c1ccnn1C(C)C (stereo not drawn) [Compound C-17, N-[7-(1-fluoro-ethyl)-6-(2-isopropyl-2H-pyrazol-3-yl)-2,4-dioxo-1,4-dihydro-2H-quinazolin-3-yl]-methanesulfonamide] | Yes
CC(OC1CCCC1)c1cc2c(=O)n(NS(C)(=O)=O)c(=O)[nH]c2cc1C(F)(F)F (stereo not drawn) [Compound A-14, N-[6-(1-Cyclopentyloxy-ethyl)-2,4-dioxo-7-trifluoromethyl-1,4-dihydro-2H-quinazolin-3-yl]-methanesulfonamide] | yes
COCCC(O)c1cc2c(=O)n(NS(C)(=O)=O)c(=O)[nH]c2cc1C(F)(F)F (stereo not drawn) [Compound A-18, N-[6-(1-Hydroxy-3-methoxy-propyl)-2,4-dioxo-7-trifluoromethyl-1,4-dihydro-2H-quinazolin-3-yl]-methanesulfonamide] | Yes
CC(C)n1nccc1-c1cc2c(=O)n(NS(C)(=O)=O)c(=O)[nH]c2cc1C(C)(F)F [Compound C-16, N-[7-(1,1-difluoro-ethyl)-6-(2-isopropyl-2H-pyrazol-3-yl)-2,4-dioxo-1,4-dihydro-2H-quinazolin-3-yl]-methanesulfonamide] | Yes
CCc1cc2[nH]c(=O)n(NS(C)(=O)=O)c(=O)c2cc1-c1ccnn1C [Compound C-11, N-[7-Ethyl-6-(2-methyl-2H-pyrazol-3-yl)-2,4-dioxo-1,4-dihydro-2H-quinazolin-3-yl]-methanesulfonamide] | Yes
CS(=O)(=O)Nn1c(=O)[nH]c2cc(C(F)(F)F)c(-c3ccnn3O)cc2c1=O [Compound C-5, N-[6-(2-Hydroxy-2H-pyrazol-3-yl)-2,4-dioxo-7-trifluoromethyl-1,4-dihydro-2H-quinazolin-3-yl]-methanesulfonamide] | Yes
CS(=O)(=O)Nn1c(=O)[nH]c2cc(C(F)(F)F)c(C3CCCO3)cc2c1=O (stereo not drawn) [Compound B-2, N-[2,4-Dioxo-6-(tetrahydro-furan-2-yl)-7-trifluoromethyl-1,4-dihydro-2H-quinazolin-3-yl]-methanesulfonamide] | Yes
CCCOC(CC)c1cc2c(=O)n(NS(C)(=O)=O)c(=O)[nH]c2cc1C(F)(F)F (stereo not drawn) [Compound A-6, N-[2,4-Dioxo-6-(1-propoxy-propyl)-7-trifluoromethyl-1,4-dihydro-2H-quinazolin-3-yl]-methanesulfonamide] | Yes
CC(C)OC(C)c1cc2c(=O)n(NS(C)(=O)=O)c(=O)[nH]c2cc1C(F)(F)F (stereo not drawn) [Compound A-4, N-[6-(1-Isopropoxy-ethyl)-2,4-dioxo-7-trifluoromethyl-1,4-dihydro-2H-quinazolin-3-yl]-methanesulfonamide] | Yes
